pIC50: −log10 of the molar value.
Each compound was assayed on HCT116 MTAP-/- cells (assay: Activity test of HCT116 MTAP gene homozygous deletion cells (CellTiter-Glo)). Settings: Homo sapiens, HCT-116, 120 h incubation, read-out: HCT116 MTAP-/- Cell IC50.
Format: cell-based
Protocol: On day 1, cell seeding: after digestion of the cells with trypsin, the cells were resuspended to the desired density with the complete medium (RPMI-1640 supplemented with 10% FBS; the brand of FBS is EXCELL, Cat. No. FND500; the brand of RPMI-1640 is ATCC, Cat. No. 30-2001), mixed evenly, and added into the 96-well plate at 100 μL/well with a cell density of 1000-3000 cells per well. The plate was put back to the incubator for the adherent growth of cells. On day 2, the addition of the compounds to be tested: before the addition of the compounds, the cells were starved with serum-free medium for 4 h, then the complete medium containing the corresponding concentration of compounds was added thereto, and the cells were incubated at 37° C., 5% CO2 for 120 h. On day 7, the cell culture plates were taken out from incubator and equilibrated to room temperature. 50 μL of CellTiter-Glo (Promega Company, Cat. No. G7571) reagent was added per well, and the cells were fully lysed by shaking at room temperature for 2 min, and then incubated for another 60 min to detect the fluorescence intensity. Calculation formula:
% Inhibition=100−(signal of the well with the compound to be tested−signal of the well with only medium and free of cells)/(signal of the well with cells but without addition of the compound−signal of the well with only medium and free of cells)×100.
The fitting dose-effect curve of the analysis software GraphPad Prism 5 was used to give IC50 values of the individual compounds against cellular activity.
Compound `COc1ccc(-c2c(N)c3ccc(C(F)(F)F)nc3n(-c3ccc(Br)cc3)c2=O)cc1` [Example 79, 4-amino-1-(4-bromophenyl)-3-(4-methoxyphenyl)-7-(trifluoromethyl)-1,8-naphthyridin-2(1H)-one] has a pIC50 of 7.96.
For `Cn1cnc2ccc(-c3c(N)c4ccc(C(F)(F)F)nc4n(-c4ccc(Br)cc4)c3=O)cc21` [Example 80], the pIC50 was 7.88.
Work on `CNc1c(-c2cncs2)c(=O)n(-c2ccccc2)c2nc(C(F)(F)F)ccc12` [Example 29] yielded a pIC50 of 6.37.
In the case of `Cn1nc2ccc(-c3c(N)c4ccc(C(F)(F)F)nc4n(-c4ccc(Cl)cc4)c3=O)cc2n1` [Example 64], the pIC50 was 7.97.
`CNc1c(-c2nnco2)c(=O)n(-c2ccccc2)c2nc(C(F)(F)F)ccc12` [Example 6, 4-(methylamino)-3-(1,3,4-oxadiazol-2-yl)-1-phenyl-7-(trifluoromethyl)-1,8-naphthyridin-2(1H)-one] was tested, and the pIC50 was 6.31.
With `CNc1c(-c2ncco2)c(=O)n(-c2ccccc2)c2nc(C(F)(F)F)ccc12` [Example 7, 4-(methylamino)-3-(oxazol-2-yl)-1-phenyl-7-(trifluoromethyl)-1,8-naphthyridin-2(1H)-one] the pIC50 was 6.10.
With `CNc1c(-c2ccccc2)c(=O)n(-c2ccccc2)c2nc(C(F)(F)F)ccc12` [Example 13] the pIC50 was 6.20.
`Cn1nnc2ccc(-c3c(N)c4ccc(C(F)(F)F)nc4n(-c4ccc(Cl)cc4)c3=O)cc21` [Example 63] showed a pIC50 of 7.67.

These compounds were tested against MAT2a (Homo sapiens (Human), UniProt P31153) (assay: MAT2a enzymatic activity test (colorimetric assay)). Settings: OD620, 150 min reaction, read-out: IC50 against MAT2a.
Chain of MAT2a (P31153 whole entry): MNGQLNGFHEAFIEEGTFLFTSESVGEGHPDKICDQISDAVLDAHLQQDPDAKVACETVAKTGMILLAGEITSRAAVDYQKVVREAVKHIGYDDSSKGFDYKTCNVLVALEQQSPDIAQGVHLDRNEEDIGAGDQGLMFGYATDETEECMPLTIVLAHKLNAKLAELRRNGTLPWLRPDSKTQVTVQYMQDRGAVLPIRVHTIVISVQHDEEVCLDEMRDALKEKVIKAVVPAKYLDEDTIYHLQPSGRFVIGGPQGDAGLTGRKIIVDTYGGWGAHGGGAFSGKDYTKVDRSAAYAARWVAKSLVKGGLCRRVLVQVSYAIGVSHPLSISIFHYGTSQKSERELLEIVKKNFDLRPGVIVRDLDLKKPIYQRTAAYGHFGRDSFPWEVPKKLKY
Format: biochemical
Protocol: The Colorimetric assay method was used to detect the IC50 value of the tested compounds on MAT2a.
The specific steps were as follows: The compounds having the test starling concentration of 1 μM or 10 μM were diluted into 10 concentration points in a 3-fold gradient. 250 nL of the solutions of the compounds to be tested with 10 different concentrations were taken and added into a 384 well plate for later use. 20 μg/mL of MAT2a enzyme solution was prepared with Assay buffer (50 mM Tris, 50 mM KCl, 10 mM MgCl2, 0.05% polyoxyethylene lauryl ether, pH 8.0). 15 μL of the MAT2a enzyme solution at 20 μg/mL was add into the wells of the compounds to be tested at different concentrations; and 15 μL of Assay buffer was added into the negative control well. An incubation was carried out for 15 minutes after shaking for mixing well. A mixed substrate solution (comprising 400 μM ATP and 600 μM L-Methionine) was prepared with Assay buffer. 10 μL of the mixed substrate solution was added to the positive control well, the compound to be tested well, and the negative control well, respectively, and the reaction began, for a reaction time of 150 min. Then, 50 μL of the reaction stop solution (BIOMOL Green™ Reagent Enzo lifesciences, Cargo No. BML-AK111-1000) was added to stop the reaction, followed by being centrifuged at 1000 rpm for 60 s and then being incubated for 15 min. OD620 was read and data were processed.
By using the log value of the concentration as the X-axis and the inhibition % as the Y-axis, the IC50 value of each compound against enzyme activity was obtained through employing the log(inhibitor) vs. response-Variable slope fitting dose-effect curve of the analysis software GraphPad Prism 5.
`Nc1c(-c2ccc3cncnc3c2)c(=O)n(-c2ccc(Cl)cc2)c2nc(C(F)(F)F)ccc12` [Example 70] was tested, and the pIC50 was 7.52.
`COc1ccc(-c2c(N)c3ccc(C(F)(F)F)nc3n(-c3ccc(Br)cc3)c2=O)cc1` [Example 79, 4-amino-1-(4-bromophenyl)-3-(4-methoxyphenyl)-7-(trifluoromethyl)-1,8-naphthyridin-2(1H)-one] was tested, and the pIC50 was 7.74.
In the case of `Cc1ccc(-c2c(N)c3ccc(C(F)(F)F)nc3n(-c3ccc(Cl)cc3)c2=O)o1` [Example 14], the pIC50 was 7.64.
Compound `Cn1c(N)nc2ccc(-c3c(N)c4ccc(C(F)(F)F)nc4n(-c4ccc(Cl)cc4)c3=O)cc21` [Example 37] has a pIC50 of 7.69.
For `Nc1c(-c2ccc3c(c2)OCO3)c(=O)n(-c2ccc(Br)cc2)c2nc(C(F)(F)F)ccc12` [Example 86], the pIC50 was 7.80.
With `CNc1c(-c2ccoc2)c(=O)n(-c2ccccc2)c2nc(C(F)(F)F)ccc12` [Example 9] the pIC50 was 7.67.
With `CS(=O)(=O)CCn1cc2cc(-c3c(N)c4ccc(C(F)(F)F)nc4n(-c4ccc(Cl)cc4)c3=O)ccc2n1` [Example 51] the pIC50 was 7.79.
Work on `CNc1c(-c2ncc[nH]2)c(=O)n(-c2ccccc2)c2nc(C(F)(F)F)ccc12` [Example 8, 3-(1H-imidazol-2-yl)-4-(methylamino)-1-phenyl-7-(trifluoromethyl)-1,8-naphthyridin-2(1H)-one] yielded a pIC50 of 8.06.
In the case of `Nc1c(-c2ccc3cccnc3c2)c(=O)n(-c2ccc(Cl)cc2)c2nc(C(F)(F)F)ccc12` [Example 18], the pIC50 was 7.29.
For `Cn1cnc2ccc(-c3c(N)c4ccc(C(F)(F)F)nc4n(-c4ccc(Br)cc4)c3=O)cc21` [Example 80], the pIC50 was 7.81.
Compound `Nc1c(-c2ccc3nn[nH]c3c2)c(=O)n(-c2ccc(Cl)cc2)c2nc(C(F)(F)F)ccc12` [Example 62, 4-amino-3-(1H-benzo[d][1,2,3]triazol-6-yl)-1-(4-chlorophenyl)-7-(trifluoromethyl)-1,8-naphthyridin-2(1H)-one] has a pIC50 of 7.79.
`Nc1c(-c2ccn3ncnc3c2)c(=O)n(-c2ccc(Cl)cc2)c2nc(C(F)(F)F)ccc12` [Example 60] showed a pIC50 of 7.77.
In the case of `CN(C)CCn1ncc2cc(-c3c(N)c4ccc(C(F)(F)F)nc4n(-c4ccc(Cl)cc4)c3=O)ccc21` [Example 73], the pIC50 was 7.73.
`Cn1ncc2cc(-c3c(N)c4ccc(C(F)(F)F)nc4n(-c4ccc(Cl)cc4)c3=O)ccc21` [Example 66] gave a pIC50 of 7.80.
`CNc1c(-c2cncs2)c(=O)n(-c2ccccc2)c2nc(C(F)(F)F)ccc12` [Example 29] showed a pIC50 of 7.60.
`Cn1cc2cc(-c3c(N)c4ccc(C(F)(F)F)nc4n(-c4ccc(Br)cc4)c3=O)ccc2n1` [Example 92] gave a pIC50 of 7.76.
Compound `Nc1c(-c2ccc(F)cc2)c(=O)n(-c2ccc(Br)cc2)c2nc(C(F)(F)F)ccc12` [Example 84] has a pIC50 of 7.55.
`Cn1nc2ccc(-c3c(N)c4ccc(C(F)(F)F)nc4n(-c4ccc(Cl)cc4)c3=O)cc2n1` [Example 64] showed a pIC50 of 7.81.
Work on `Cc1ccc(-n2c(=O)c(-n3cccn3)c(N)c3ccc(C(F)(F)F)nc32)cc1` [Example 81] yielded a pIC50 of 7.77.
Compound `Cc1cc(-c2c(N)c3ccc(C(F)(F)F)nc3n(-c3ccc(Cl)cc3)c2=O)on1` [Example 16] has a pIC50 of 7.38.
Compound `CNc1c(-c2nnco2)c(=O)n(-c2ccccc2)c2nc(C(F)(F)F)ccc12` [Example 6, 4-(methylamino)-3-(1,3,4-oxadiazol-2-yl)-1-phenyl-7-(trifluoromethyl)-1,8-naphthyridin-2(1H)-one] has a pIC50 of 7.39.
Work on `CNc1c(-c2nccs2)c(=O)n(-c2ccccc2)c2nc(C(F)(F)F)ccc12` [Example 2, 4-(methylamino)-1-phenyl-3-(thiazol-2-yl)-7-(trifluoromethyl)-1,8-naphthyridin-2(1H)-one] yielded a pIC50 of 7.58.
`Cn1cc(-c2c(N)c3ccc(C(F)(F)F)nc3n(-c3ccc(Cl)cc3F)c2=O)ccc1=O` [Example 78] showed a pIC50 of 7.85.
Work on `Nc1c(-c2ccc(=O)n(CC(F)(F)F)c2)c(=O)n(-c2ccc(Cl)cc2)c2nc(C(F)(F)F)ccc12` [Example 57] yielded a pIC50 of 7.77.
`Nc1c(-n2ccnc2)c(=O)n(-c2ccc(Cl)cc2)c2nc(C(F)(F)F)ccc12` [Example 35] was tested, and the pIC50 was 7.83.
Work on `CNc1c(-c2ncco2)c(=O)n(-c2ccccc2)c2nc(C(F)(F)F)ccc12` [Example 7, 4-(methylamino)-3-(oxazol-2-yl)-1-phenyl-7-(trifluoromethyl)-1,8-naphthyridin-2(1H)-one] yielded a pIC50 of 7.42.
Compound `CNc1c(-c2ccccc2)c(=O)n(-c2ccccc2)c2nc(C(F)(F)F)ccc12` [Example 13] has a pIC50 of 7.49.
`Nc1c(-c2ccc3[nH]cnc3c2)c(=O)n(-c2ccc(Cl)cc2)c2nc(C(F)(F)F)ccc12` [Example 50] was tested, and the pIC50 was 7.76.
`Cn1nnc2ccc(-c3c(N)c4ccc(C(F)(F)F)nc4n(-c4ccc(Cl)cc4)c3=O)cc21` [Example 63] gave a pIC50 of 7.75.
For `Cc1ccc(-n2c(=O)c(-c3ccn4ncnc4c3)c(N)c3ccc(C(F)(F)F)nc32)cc1` [Example 90], the pIC50 was 7.77.
Compound `CNc1c(-c2ccco2)c(=O)n(-c2ccccc2)c2nc(C(F)(F)F)ccc12` [Example 11] has a pIC50 of 7.67.
In the case of `CN(C)CCn1cc2cc(-c3c(N)c4ccc(C(F)(F)F)nc4n(-c4ccc(Cl)cc4)c3=O)ccc2n1` [Example 72], the pIC50 was 7.78.
`Nc1c(-c2cc3nccnc3cn2)c(=O)n(-c2ccc(Cl)cc2)c2nc(C(F)(F)F)ccc12` [Example 59] was tested, and the pIC50 was 7.60.
In the case of `Cc1ccc(-n2c(=O)c(-c3ccnc(C)c3)c(N)c3ccc(C(F)(F)F)nc32)cc1` [Example 91], the pIC50 was 7.74.
`Nc1c(-c2ccnc(C(F)(F)F)c2)c(=O)n(-c2ccc(Cl)cc2)c2nc(C(F)(F)F)ccc12` [Example 77] gave a pIC50 of 7.86.
In the case of `Nc1c(-c2ccn3cncc3c2)c(=O)n(-c2ccc(Cl)cc2)c2nc(C(F)(F)F)ccc12` [Example 71], the pIC50 was 7.73.
Work on `Cc1ccc(-n2c(=O)c(-c3ccc4c(c3)OCCO4)c(N)c3ccc(C(F)(F)F)nc32)cc1` [Example 88] yielded a pIC50 of 7.80.
For `Nc1c(-c2ccccc2)c(=O)n(-c2ccc(Cl)cc2)c2nc(C(F)(F)F)ccc12` [Example 65], the pIC50 was 7.82.
`Cc1ccc(-n2c(=O)c(-c3ccc4nn(C)cc4c3)c(N)c3ccc(C(F)(F)F)nc32)cc1` [Example 89] gave a pIC50 of 7.78.
Compound `CNc1c(-c2cccs2)c(=O)n(-c2ccccc2)c2nc(C(F)(F)F)ccc12` [Example 10] has a pIC50 of 7.68.
`Cc1cc(-c2c(N)c3ccc(C(F)(F)F)nc3n(-c3ccc(Cl)cc3)c2=O)ccn1` [Example 75] showed a pIC50 of 7.86.
Compound `N#Cc1cc(-c2c(N)c3ccc(C(F)(F)F)nc3n(-c3ccc(Cl)cc3)c2=O)ccn1` [Example 76] has a pIC50 of 7.79.
Work on `COc1ccc(-c2c(N)c3ccc(C(F)(F)F)nc3n(-c3ccc(Br)cc3)c2=O)cn1` [Example 93] yielded a pIC50 of 7.79.
Compound `COc1ccc(-c2c(N)c3ccc(C(F)(F)F)nc3n(-c3ccc(Cl)cc3)c2=O)nc1` [Example 61] has a pIC50 of 7.77.
`Cn1cccc1-c1c(N)c2ccc(C(F)(F)F)nc2n(-c2ccc(Cl)cc2)c1=O` [Example 28] was tested, and the pIC50 was 7.60.
Compound `Cc1ccc(-n2c(=O)c(-n3cncn3)c(N)c3ccc(C(F)(F)F)nc32)cc1` [Example 82] has a pIC50 of 7.80.
Work on `Nc1c(-c2ccc3ccccc3c2)c(=O)n(-c2ccc(Cl)cc2)c2nc(C(F)(F)F)ccc12` [Example 58] yielded a pIC50 of 7.76.
In the case of `COc1ccc(-c2c(N)c3ccc(C(F)(F)F)nc3n(-c3ccc(Br)cc3)c2=O)nc1` [Example 85], the pIC50 was 7.82.
Compound `Nc1c(-c2cncs2)c(=O)n(-c2ccc(Cl)cc2)c2nc(C(F)(F)F)ccc12` [Example 33] has a pIC50 of 7.69.
`CNc1c(-c2cncs2)c(=O)n(-c2ccc(Cl)cc2)c2nc(C(F)(F)F)ccc12` [Example 12] was tested, and the pIC50 was 7.59.
Compound `Cn1cc(-c2c(N)c3ccc(C(F)(F)F)nc3n(-c3ccc(Cl)c(F)c3)c2=O)ccc1=O` [Example 74] has a pIC50 of 7.79.
`N#Cc1ccc(-c2c(N)c3ccc(C(F)(F)F)nc3n(-c3ccc(Cl)cc3)c2=O)cc1` [Example 40] gave a pIC50 of 7.58.
For `Nc1c(-c2ccc3nncn3c2)c(=O)n(-c2ccc(Cl)cc2)c2nc(C(F)(F)F)ccc12` [Example 32], the pIC50 was 7.83.
